These results are taken from ChEMBL document CHEMBL2401614, “Synthesis of artemisinin dimers using the Ugi reaction and their in vitro efficacy on breast cancer cells” (Bioorg Med Chem Lett, 2013).

Experiment [1] concerns MCF-10A. As to the kind of experiment: Cytotoxicity against human MCF10A cells after 48 hrs by MTT assay. In kind it is cell-based.
Experiment [2] has as its system MCF-10A. As to the kind of experiment: Selectivity index, ratio of IC50 for human MCF10A cells to IC50 for human MDA-MB-231 cells. In kind it is functional.
The test system of experiment [3] is MCF-10A. As to the kind of experiment: Selectivity index, ratio of IC50 for human MCF10A cells to IC50 for human BT474 cells. In kind it is functional.
For the next experiment, the system named is MDA-MB-231. Put plainly: Cytotoxicity against human MDA-MB-231 cells after 48 hrs by MTT assay. As to conditions: MDA-MB-231, 48 h. In kind it is functional, cell-based.
For experiment [4], the system named is BT-474. As to the kind of experiment: Cytotoxicity against human BT474 cells after 48 hrs by MTT assay. The format is functional, cell-based. As to conditions: BT-474, 48 h.
Experiment [5] is described as follows: Cytotoxicity against human NCI60 cells relative to artesunate. In kind it is functional.
Experiment [6] relates to BT-474. As to the kind of experiment: Ratio of artemisinin dimer succinate IC50 to compound IC50 for human BT474 cells. In kind it is functional.

pIC50: −log10 of the molar value.

For `COC(=O)CNC(=O)C(CC[C@H]1O[C@@H]2O[C@@]3(C)CC[C@H]4[C@H](C)CC[C@@H]([C@H]1C)[C@@]24OO3)N(CCC[C@H]1O[C@@H]2O[C@@]3(C)CC[C@H]4[C@H](C)CC[C@@H]([C@H]1C)[C@@]24OO3)C(=O)c1cnccn1` (mixture of isomers), the pIC50 in the experiment with MCF-10A [1] is 4.60; in the experiment with MDA-MB-231, 4.59; in the experiment with BT-474 [4] it was 5.77. Besides, the “Ratio IC50” value turned out to be 0.96 in the experiment with MCF-10A [2] and 15 in the experiment on MCF-10A [3].

As for `COC(=O)CNC(=O)C(CC[C@H]1O[C@@H]2O[C@@]3(C)CC[C@H]4[C@H](C)CC[C@@H]([C@H]1C)[C@@]24OO3)N(CCC[C@H]1O[C@@H]2O[C@@]3(C)CC[C@H]4[C@H](C)CC[C@@H]([C@H]1C)[C@@]24OO3)C(=O)C(F)(F)F` (mixture of isomers), the pIC50 was 5.34 with MCF-10A [1], 4.72 with MDA-MB-231 and 5.18 in the experiment with BT-474 [4]. Also, the “Ratio IC50” value is reported as 0.24 in the experiment with MCF-10A [2] and 0.7 in the experiment with MCF-10A [3].

Take `COC(=O)CNC(=O)C(CC[C@H]1O[C@@H]2O[C@@]3(C)CC[C@H]4[C@H](C)CC[C@@H]([C@H]1C)[C@@]24OO3)N(CCC[C@H]1O[C@@H]2O[C@@]3(C)CC[C@H]4[C@H](C)CC[C@@H]([C@H]1C)[C@@]24OO3)c1ccc([N+](=O)[O-])cc1` (mixture of isomers): the figures for the pIC50 in the experiment on MCF-10A [1], in the experiment with MDA-MB-231 and in the experiment on BT-474 [4] were 4.33, 5.92 and 7.02, respectively. Further, the entries for the “Ratio IC50” value with MCF-10A [2] and in the experiment with MCF-10A [3] were 39 and 490, respectively.

Turning to `COC(=O)CNC(=O)C(CC[C@H]1O[C@@H]2O[C@@]3(C)CC[C@H]4[C@H](C)CC[C@@H]([C@H]1C)[C@@]24OO3)N(CCC[C@H]1O[C@@H]2O[C@@]3(C)CC[C@H]4[C@H](C)CC[C@@H]([C@H]1C)[C@@]24OO3)C(=O)c1ccc(N(C)C)cc1` (mixture of isomers), the values for the pIC50 with MCF-10A [1], with MDA-MB-231 and with BT-474 [4] were 4.82, 4.92 and 6.06, respectively. Further, the “Ratio IC50” value in the experiment on MCF-10A [2] turned out to be 1.3; in the experiment with MCF-10A [3] it was 17.

Turning to `COC(=O)CNC(=O)C(CC[C@H]1O[C@@H]2O[C@@]3(C)CC[C@H]4[C@H](C)CC[C@@H]([C@H]1C)[C@@]24OO3)N(C(=O)c1ccccc1)C(C)C` (stereo not given in full), the pIC50 in the experiment with MCF-10A [1], in the experiment on MDA-MB-231 and in the experiment with BT-474 [4] was below 4.00 in each case.

For the molecule `COC(=O)CNC(=O)C(CC[C@H]1O[C@@H]2O[C@@]3(C)CC[C@H]4[C@H](C)CC[C@@H]([C@H]1C)[C@@]24OO3)N(CCC[C@H]1O[C@@H]2O[C@@]3(C)CC[C@H]4[C@H](C)CC[C@@H]([C@H]1C)[C@@]24OO3)C(=O)c1ccccc1` (mixture of isomers), the pIC50 was 5.30 in the experiment with MCF-10A [1], 4.96 in the experiment on MDA-MB-231 and 6.10 with BT-474 [4]. Further, the “Ratio IC50” value is recorded as 0.45 with MCF-10A [2] and 6.3 in the experiment on MCF-10A [3].

For the molecule `COC(=O)CNC(=O)C(CC[C@H]1O[C@@H]2O[C@@]3(C)CC[C@H]4[C@H](C)CC[C@@H]([C@H]1C)[C@@]24OO3)N(CCC[C@H]1O[C@@H]2O[C@@]3(C)CC[C@H]4[C@H](C)CC[C@@H]([C@H]1C)[C@@]24OO3)C(=O)c1cccc(OC)c1OC` (mixture of isomers), the pIC50 with MCF-10A [1] is 5.24; in the experiment with MDA-MB-231 it was 4.92; in the experiment on BT-474 [4], 5.24. The “Ratio IC50” value in the experiment with MCF-10A [2] turned out to be 0.48; in the experiment with MCF-10A [3], 0.98.

Regarding `C[C@H]1[C@H](OC(=O)CCC(=O)O)O[C@@H]2O[C@@]3(C)CC[C@H]4[C@H](C)CC[C@@H]1[C@@]24OO3` [ARTESUNATE], the pIC50 is 4.68 in the experiment on MCF-10A [1], 4.34 in the experiment with MDA-MB-231 and 5.11 with BT-474 [4]. Moreover, the “Ratio IC50” value in the experiment on MCF-10A [2] is recorded as 0.46; with MCF-10A [3], 2.7.

For the molecule `C[C@H]1[C@@H](CC(COC(=O)CCC(=O)O)C[C@H]2O[C@@H]3O[C@@]4(C)CC[C@H]5[C@H](C)CC[C@@H]([C@H]2C)[C@@]35OO4)O[C@@H]2O[C@@]3(C)CC[C@H]4[C@H](C)CC[C@@H]1[C@@]24OO3` (stereo not given in full), the pIC50 was 4.68 with MCF-10A [1], 6.62 with MDA-MB-231 and 7.00 in the experiment on BT-474 [4]. Further, in experiment [5], the “fold change (FC)” value is on record as “<=500”. The “Ratio IC50” value in the experiment on MCF-10A [2] worked out at 88; in the experiment with MCF-10A [3] it was 210.

In the case of `C[C@H]1[C@@H](CCCN(c2c(F)c(F)cc(F)c2F)C(CC[C@H]2O[C@@H]3O[C@@]4(C)CC[C@H]5[C@H](C)CC[C@@H]([C@H]2C)[C@@]35OO4)C(=O)NCC(=O)O)O[C@@H]2O[C@@]3(C)CC[C@H]4[C@H](C)CC[C@@H]1[C@@]24OO3` (stereo not given in full), the “Ratio IC50” value with BT-474 [6] was found to be 8; in the experiment with MCF-10A [2], 43; with MCF-10A [3] it was 8200. For the same molecule, the pIC50 was 4.01 in the experiment with MCF-10A [1], 5.64 in the experiment with MDA-MB-231 and 7.92 in the experiment with BT-474 [4].
